Data set [1] in a line: Container atmosphere composition (GC-PID). It is filed as physicochemical. The conditions noted are these: after 20 days of storage, one or two devices, 24 ml pulegone, 65 L container, maintained 4/5 months. As for the experimental part: To study the evolution of the spatial and temporal pulegone concentration, two containers with 1 and 2 release devices were used, similar to those described in 4.1. In each container, 24 ml of pulegone were impregnated in cotton.
The spatial concentration profiles along time were outlined by collecting over time samples of 500 μL from the container atmosphere, through the 6 sampling ports (detailed presentation in FIG. 1) using a 500 μL gas-tight Hamilton syringe.
Nitrogen was used as carrier gas at a constant 2 mL flow rate.

The subject of data set [2] is Sitophilus zeamais. Put plainly: Insecticidal activity test, vapour phase, maize. It is filed as in vivo. The conditions noted are these: 18.8 μL/mL. As for the experimental part:
Maize grain with an average moisture content of 14±0.5% and ten unsexed adult insects aged from 1 to 4 days were used. The stock cultures of insects and the biological tests were carried out in a single incubator at 27° C. and 75±5% relative humidity.
Control with non-treated samples was also performed. Ten replicates per treatment and control were set up. All the replicates were kept in an incubator at 27° C. and 75%±5% relative humidity.
The progeny (F1) was evaluated monthly by common procedures after removing the parent adults. Insect mortality was assessed during five months (0.25, 1, 8, 134 and 149 days). The development index and the life cycle were also evaluated.

Data set [3] concerns fungi growth on dried grains. Put plainly: Antifungal in vivo test on dried grains, vapour phase. Conditions: dried grains on PDA, 25 weeks. The source says: 1.2 In vivo tests. The efficacy screening of the vapour of clove and pennyroyal essential oils (OE) and their main active components (MAC) eugenol, pulegone or their mixture was, carried out using a modified technique describe in Bluma, R., Landa, M. F., Etcheverry, M., 2009. Impact of volatile compounds generated by essential oils on Aspergillus section Flavi growth parameters and aflatoxin accumulation. J. Sci. Food Agric. 89 (9), 1473-1480. For the determination of volatile phase effect of essential oil on fungi growth different concentrations of essential oil were added to sterile filter papers (10 mm diameter, Whatman No. 1), namely, 0.5 μL/mL, 1.0 μL/mL, 2.5 μL/mL and 5.0 μL/mL and placed adherent to the inner surface of each Petri dishes lid (90 mm).
The grains were disinfected at surface as describe by Pitt & Hocking (Pitt, J. I., Hocking, A. D., 2009. Fungi and food spoilage. Springer, New York).
Ten dried grains were placed on Petri dishes with 20 mL of PDA medium with chloramphenicol (1%). These dishes were sealed immediately with parafilm and incubated at 28° C. Inhibition concentrations of volatile phase of essential oils were determined by periodic observation of fungi growth over 25 weeks. Control with no treated grains was also performed. For each concentration ten replicates were done.

The subject of data set [4] is Acanthoscelides obtectus. The data set is described as follows: Insecticidal activity test, vapour phase, bean. Conditions: 7.5 μL/mL. Format: in vivo.
Data set [5] relates to grain maize germination. The data set is described as follows: In vitro germination assay of treated seeds. Conditions: 3.5 months treatments, in vitro after 4 days (FIG. 2A). The protocol:
(§1) FIG. 2—Represents the effect of 3.5 months treatments on grain maize germination: (A) in vitro after 4 days and (B) in vivo 17 days after sowing (DAS).
In an embodiment, for the in vitro germination assay were used 10 seeds and 5 ml of sterile water per petri dish and the incubation temperature was ±25° C.

The subject of data set [6] is plants produced from treated seeds. The data set is described as follows: In vivo effects on plants from treated seeds (pots in greenhouse). Also noted: species or system maize. As for the experimental part: as §1
In an embodiment, the assay was performed in pots in a greenhouse with environmental monitoring (temperature, humidity and PAR intensity) and controlled irrigation. For each treatment, 6 pots with 2 plants each were used. […] No relevant differences in phenotypic (germination, chlorophyll and height) and physiological parameters (photosynthesis, stomatal conductance and transpiration (FIG. 3) were found.

In data set [7] the test system is Penicillium islandicum. Put plainly: Antifungal in vitro assay, direct plating. It is filed as cell-based. The conditions noted are these: observed over 25 weeks. As for the experimental part:
(§2) The screening of S. aromaticum and M. pulegium essential oils and their major components, eugenol and pulegone, respectively, was carried out using a direct plating technique in order to evaluate their ability to inhibit the growth of Aspergillus candidus, A. niger, Penicillium islandicum and Fusarium culmorum.
(§3) In vitro assays. For the determination of direct plating effect of essential oil on the growth of the fungi on different concentrations 0.5, 1.0, 2.5 and 5.0 μL/mL of essential oil were put on the surface of a Petri dish with 20 mL of potato dextrose agar medium (PDA). These Petri dishes were inoculated with a 5 mm diameter disk of fungi grown on PDA medium for 8 days at 28° C. This disk was placed on the agar surface and the dish sealed immediately with parafilm to prevent loss of essential oil to the atmosphere and incubated at 28° C. Inhibition concentrations of essential oil were determined by periodic evaluation of fungi growth during 25 weeks. For each concentration, four replicate dishes were used.

Data set [8] deals with Aspergillus niger. Put plainly: Antifungal in vitro assay, direct plating. It is filed as cell-based. The conditions noted are these: observed over 25 weeks. The protocol:
as §2, §3

Data set [9] relates to Aspergillus candidus. The data set is described as follows: Antifungal in vitro assay, direct plating. Format: cell-based. Conditions: observed over 25 weeks. As for the experimental part:
as §2, §3

The subject of data set [10] is Fusarium culmorum. Put plainly: Antifungal in vitro assay, direct plating. The conditions noted are these: observed over 25 weeks. Format: cell-based. As for the experimental part:
as §2, §3

Data set [11] has as its system Penicillium islandicum. Put plainly: Antifungal in vitro assay, volatile (vapour) phase. It is filed as cell-based. Conditions: observed over 25 weeks. As for the experimental part: (§4) Petri dishes were inoculated with a 5 mm diameter disk of fungi grown on PDA medium for 8 days at 28° C. This disk was placed on the agar surface and the dish sealed immediately with parafilm and incubated at 28° C. Inhibition concentrations of volatile phase of essential oils were determined by a periodic evaluation the fungi growth over 25 weeks. In the control, equal amounts of sterilized water was added to filter papers and placed onto the lid of Petri dishes. For each concentration, four replicate Petri dishes were used. The absence of growth was recorded during 25 weeks.

Data set [12] has as its system Aspergillus niger. The data set is described as follows: Antifungal in vitro assay, volatile (vapour) phase. Format: cell-based. The conditions noted are these: observed over 25 weeks. The protocol: as §4
Data set [13] has as its system Aspergillus candidus. Put plainly: Antifungal in vitro assay, volatile (vapour) phase. It is filed as cell-based. The conditions noted are these: observed over 25 weeks. As for the experimental part: as §4
Data set [14] concerns Fusarium culmorum. Put plainly: Antifungal in vitro assay, volatile (vapour) phase. Format: cell-based. Conditions: observed over 25 weeks. As for the experimental part: as §4

For `CC(C)=C1CC[C@@H](C)CC1=O` [Pulegone, pulegone], the “stabilized concentration level in the container atmosphere” value in data set [1] is 10 % of the standard pulegone saturation value. Besides, the “Insect Mortality (%)” value is 46% in [2] (0.25 days); 100% in [2] (1 day); 100% in data set [2] (8 days); 100% in data set [2] (134 days); 100% in [2] (149 days); 0% in data set [4] (0.25 days). In addition, the “Insect Mortality (%)” value in data set [4] (1 day (control 29)), in data set [4] (8 days (control 100)), in data set [4] (134 days (control 100)) and in [4] (149 days (control 100)) was 100% throughout. Also, the “Time (weeks), period of storage without any fungal contamination, in vivo” value worked out at 2 weeks in data set [3] (0.5 μL/mL), 20 weeks in data set [3] (2.5 μL/mL) and 25 weeks in [3] (5.0 μL/mL).

Consider `C=C(C)[C@H]1CC=C(C)CC1` [Limonene, reference compound], for which, in [5], the “seed germination capacity, in vitro” value is listed as “significant decrease”. In addition, in [6] (plants from treated seeds (FIG. 4A)), the “height of plants relatively to the control” value is reported as “small variation”. The “decrease in total chlorophyll content related to the control” value in data set [6] (plants obtained from treated grains) is 1.9%. Further, the “germination, in vivo” value in [6] (pots in greenhouse, figure printed in brackets after 'really affected the germination') was found to be 49.1%. For the same molecule, the “Insect Mortality (%)” value came out at 0% in data set [4] (0.25 days); 100% in data set [4] (1 day (control 29)); 100% in data set [4] (8 days (control 100)); 100% in [4] (134 days (control 100)); 100% in [4] (149 days (control 100)).

Regarding `C=CCc1ccc(O)c(OC)c1` [Eugenol, eugenol], the “Time (weeks), period of storage without any fungal contamination” value in [7] (0.5 μL/mL), in data set [7] (1.0 μL/mL), in [7] (2.5 μL/mL), in data set [7] (5.0 μL/mL), in data set [8] (0.5 μL/mL) and in data set [8] (1.0 μL/mL) was 25 weeks in each case. Besides, the “Time (weeks), period of storage without any fungal contamination” value in data set [8] (2.5 μL/mL), in data set [8] (5.0 μL/mL), in data set [9] (0.5 μL/mL), in data set [9] (1.0 μL/mL), in data set [9] (2.5 μL/mL) and in data set [9] (5.0 μL/mL) was 25 weeks each time. In addition, the “Time (weeks), period of storage without any fungal contamination” value in data set [10] (0.5 μL/mL), in data set [10] (1.0 μL/mL), in [10] (2.5 μL/mL), in [10] (5.0 μL/mL), in data set [11] (0.5 μL/mL) and in data set [11] (1.0 μL/mL) was 25 weeks throughout. The “Time (weeks), period of storage without any fungal contamination” value in data set [11] (2.5 μL/mL) stood at 25 weeks; in [11] (5.0 μL/mL), 25 weeks; in data set [12] (0.5 μL/mL), 23 weeks; in data set [12] (1.0 μL/mL), 25 weeks; in data set [12] (2.5 μL/mL), 25 weeks; in data set [12] (5.0 μL/mL) it was 25 weeks. Also, the “Time (weeks), period of storage without any fungal contamination” value in [13] (0.5 μL/mL) is on record as 21 weeks; in [13] (1.0 μL/mL), 25 weeks; in data set [13] (2.5 μL/mL), 25 weeks; in data set [13] (5.0 μL/mL) it was 25 weeks; in [14] (0.5 μL/mL), 25 weeks; in [14] (1.0 μL/mL), 25 weeks. In addition, the “Time (weeks), period of storage without any fungal contamination” value in data set [14] (2.5 μL/mL) and in [14] (5.0 μL/mL) was 25 weeks in each case. Moreover, the “Time (weeks), period of storage without any fungal contamination, in vivo” value in data set [3] (0.5 μL/mL) is on record as 2 weeks; in data set [3] (2.5 μL/mL), 25 weeks; in data set [3] (5.0 μL/mL), 25 weeks. For the same molecule, the “Insect Mortality (%)” value in data set [4] (0.25 days) turned out to be 0%; in data set [4] (1 day (control 29)), 70%; in data set [4] (8 days (control 100)), 100%; in data set [4] (134 days (control 100)) it was 100%; in data set [4] (149 days (control 100)), 100%.

For the origin of these results see US10653139B2 (priority 2015, dated 2020).
